# Experimental data as given in patent US20130028986A1, “Pharmaceutical Compositions” (SABAREP LIMITED, priority 2005, published 2013).
# Tested on: skin or epidermal barrier (skin treated with clobetasol propionate)
# Experiment: Topical corticosteroid induced protease skin barrier damage model (tape stripping, TEWL)
# Type: in vivo, human (volunteer)
# Conditions: for rate of TEWL increase during tape stripping: compared to control and vehicle alone, up to 20 tape strips
# Description: Topical glucocorticoids (corticosteroids), which are used in the treatment of atopic dermatitis, damage the skin barrier and cause changes to the lipids within the epidermis, and a reduction in the number corneodesmosomes holding the corneocytes together. […] Therefore, skin that has been pretreated with gluticocorticoids can provide a good model in which to test the efficacy of compounds for their capacity to restore the skin or epidermal barrier and to be useful in the treatment of dermato logical conditions that compromise the skin or epidermal barrier, particularly those involving an abnormal decrease in the cell-to-cell adhesion between epithelial cells (in particular between corneocytes) such as atopic eczema or dermatitis, sebarrhoeic eczema, irritant contact dermatitis, allergic contact dermatitis and other sensitive skin conditions. […] The techniques disclosed by Kao et al. provide a measure of barrier integrity and corneocyte cohesion (any increases in TEWL are indicative of a loss in barrier function and increases in total protein removed by the skin strips are the result of a loss of intercellular cohesion, and vice versa). The methods employed by Kao were therefore used in the following examples. The TEWL measurements were taken using an “Aquaflux AF 102” electrolytic water analyser (Available from Biox Systems Ltd, Southwark Campus, 103 Borough Road, London SE1 0AA, UK) in the manner described in Berg et al. (Berg, E. P. Pascut, F. C, Ciortea, L. L, O'Driscoll, D., Xiao, P. and Imhof, R. E. (2002), Aquaflux—A new instrument for water vapour flux density measurement Proceedings of the 4th International Symposium on Humidity and Moisture, Centre for Measurement Standards, ITRI, RoC, ISBN 957-774-423-0, pp. 288-95) and Ciortea et al. (Ciortea, L. I. O'Driscoll, D., Berg, E. P., Xiao, P., Pascut, F. C. and Imhof, R. E. (2002), New methods for measuring water desorption and vapour permeation rates in membranes Proceedings of the 4th International Symposium on Humidity and Moisture, Centre for Measurement Standards, ITRI, RoC, ISBN 957-774-423-0, pp. 288-95).
# Microfine zinc oxide (available from BASF Aktiengesellschaft, 67056 Ludwigshafen, Germany, under the trade mark Z-Cote®, item no. 55082355, or from Univar, Basildon, Essex, UK, as item no. 76011010; see also: Z-Cote®, BASF; Mitchnick, M. A., Fairhurst, D. and Pinnell, S. R. (1999) J Am Acad Dermatol 40: 85-90) (25%) in light liquid paraffin was applied twice a day to a volunteer's left forearm for 4 days; their right forearm received light liquid paraffin only. One fingertip unit of clobetasol propionate (a potent corticosteroid) was then applied twice a day to the study areas for 3 days. TEWL was then measured at base line and following the removal of 4, 8, 12 and 16 tape strips.
# Microfine zinc oxide, 5 and 15%, in light liquid paraffin was applied twice a day to a volunteer's the left bicep and left forearm for 4 days, respectively; the right bicep received light liquid paraffin only. […] TEWL was then measured at base line and following the removal of 4, 8, 12 and 16 tape strips. […]
# Four finger dips of 12 mg/ml zinc stearate in light liquid paraffin were applied to the right forearm for 9 days, twice daily. […] On day 10, TEWL was measured at base line following the removal of 4, 8, 12 and 16 tape strips. […]
compound,measurement,setting,value
"[O-2].[Zn+2] [Microfine zinc oxide, zinc oxide]",reduction in TEWL following the removal of 16 tape strips,"Example Ia, FIG. 2, 25% in light liquid paraffin twice a day for 4 days on left forearm, then clobetasol propionate twice a day for 3 days, compared with light liquid paraffin only",37.5%
same,"protective effect (TEWL at base line and after 4, 8, 12 and 16 tape strips)","Example Ib, FIG. 3, 5 and 15% in light liquid paraffin twice a day for 4 days, clobetasol propionate twice a day for 3 days, compared with light liquid paraffin only",dose-dependant response
same,rate of TEWL increase during tape stripping,"Example Ie, FIG. 6, zinc oxide 25% (alone or with 12 mg/ml palmitic acid) in PEG400/ethanol (7:3) 6 times a day for 4 days, clobetasol propionate 3 times over 48 hours",significantly reduced
"CCCCCCCCCCCCCCCC(=O)O [palmitic acid, Hexadecanoic acid]",rate of TEWL increase during tape stripping,"Example Id, FIG. 5, 12 mg/ml in PEG400/ethanol (7:3) 6 times a day for 4 days, then clobetasol propionate 3 times over 24 hours",significantly reduced
zinc stearate,"protection against the effects of clobetasol (TEWL at base line and after 4, 8, 12 and 16 tape strips)","Example Ic, FIG. 4, 12 mg/ml in light liquid paraffin twice daily for 9 days on right forearm, clobetasol propionate twice a day on days 6 to 9, TEWL on day 10",can also protect against the effects of clobetasol
